Data published in patent US5798097A, “Immunogobulin conjugates” (Pharmacia & Upjohn S.p.A., priority 1987, dated 1998).

Experiments:
[1] = tested on: murine thymoma ITT(1) 75NS E3 (Ly-2^+); experiment: 24 hour inhibition assay ([^3 H]-thymidine incorporation), E3; type: cell-based; details: Mus musculus
From the text: (§1) The cell lines examined in this study included the (Ly-2^+) murine thymoma ITT(1) 75NS E3 variant (E3) (Smyth et al, J. Natl Cancer Inst. 1986 76 503-510), the (Ly-2^-, TFR^-) lymphoma EL4 (Horowitz et al, Science 1968 160 533-535), the (TFR^+) human cell line CEM (Foley et al Cancer 1965 18 522-529) and the (250-30.6^+) human cell line COLO 205. Cells were maintained in vitro in Dulbecco's Modified Eagle's medium (DME) or RPMI 1640 medium (Flow Laboratories, Sydney, Australia), supplemented with 10% heat inactivated newborn calf serum (Flow), 2 mM glutamine (Commonwealth Serum Laboratories, Sydney, Australia); 100 ug/ml streptomycin (Glaxo, Melbourne, Australia) and 100 I.U./ml penicillin (Commonwealth Serum Laboratories). […] Mice were subjected to a series of intraveneous (i.v.) or intratumour (i.t.) treatments and the subsequent size of tumours was measured daily with a caliper square, measuring along the perpendicular axes of the tumours. Data was recorded as mean tumour size (product of two diameters ± standard error).
(§2) (b) 30 minute inhibition assay: 200 ul of cells (2-5×10^6 /ml) were collected in sterile Eppendorf tubes, resuspended in sterile drug or conjugate and mixed for 30 min at 37° C. […] Cells were then harvested and dried, and individual samples were separated and counted on a beta scintillation counter.

[2] = tested on: human cell line CEM; experiment: 24 hour inhibition assay ([^3 H]-thymidine incorporation), CEM; type: cell-based
From the text: as §1, §2

[3] = tested on: COLO 205; experiment: 24 hour inhibition assay ([^3 H]-thymidine incorporation), COLO 205; type: cell-based; details: Homo sapiens
Method: The cell lines examined in this study included the (Ly-2^+) murine thymoma ITT(1) 75NS E3 variant (E3) (Smyth et al, J. Natl Cancer Inst. 1986 76 503-510), the (Ly-2^-, TFR^-) lymphoma EL4 (Horowitz et al, Science 1968 160 533-535), the (TFR^+) human cell line CEM (Foley et al Cancer 1965 18 522-529) and the (250-30.6^+) human cell line COLO 205. […] Mice were subjected to a series of intraveneous (i.v.) or intratumour (i.t.) treatments and the subsequent size of tumours was measured daily with a caliper square, measuring along the perpendicular axes of the tumours. Data was recorded as mean tumour size (product of two diameters ± standard error). […]
(b) 30 minute inhibition assay: 200 ul of cells (2-5×10^6 /ml) were collected in sterile Eppendorf tubes, resuspended in sterile drug or conjugate and mixed for 30 min at 37° C. […] Cells were then harvested and dried, and individual samples were separated and counted on a beta scintillation counter. Incorporation of [^3 H]-thymidine was expressed as a percentage inhibition in incorporation of controls. […]

[4] = tested on: (L3T4^+) lymphoma EL4; experiment: 24 hour inhibition assay ([^3 H]-thymidine incorporation), EL4; type: cell-based; details: Table 3; EL4, 24 hr; read-out: Mean I.D.50 values (Ida (M))
Method: (a) 24 hour inhibition assay: 100 ul of cells (2-5×10^6 /ml) were added to a flat-bottomed microtitre plate and incubated for 1 hour at 37° C. Free Idarubicin (Ida) (dissolved in PBS) and Ida-MoAb conjugates were filtered aseptically and dilutions were performed in sterile PBS; 50 ul of free Ida or conjugate were added to the cells using duplicate wells for each sample; control wells received 50 ul of PBS and the cells were cultured at 37° C., 7% CO2 for 24 hours.
(b) 30 minute inhibition assay: 200 ul of cells (2-5×10^6 /ml) were collected in sterile Eppendorf tubes, resuspended in sterile drug or conjugate and mixed for 30 min at 37° C. […] Cells were then harvested and dried, and individual samples were separated and counted on a beta scintillation counter. Incorporation of [^3 H]-thymidine was expressed as a percentage inhibition in incorporation of controls.
The cell lines examined in this study included the (Ly-2^+) murine thymoma ITT(1)75NS E3 variant (E3), the (L3T4^+) lymphoma EL4 (Horowitz et al, Science 1968 160 533-535), the human colon carcinoma Colo 205 (Semple et al, Cancer Res. 1978 38 1345-1355) and the (Ly-2^-, L3T4^-) human T cell leukemia CEM (Foley et al, Cancer 1965 18 522-529). […] Mice were then subjected to a series of i.v. treatments and the size of the tumours was measured daily with a caliper square, measuring along the perpendicular axes of the tumours. […]

[5] = tested on: E3 and CEM cell lines
Method: (§3) (b) 30 minute inhibition assay: 200 ul of cells (2-5×10^6 /ml) were collected in sterile Eppendorf tubes, resuspended in sterile drug or conjugate and mixed for 30 min at 37° C. Cells were then centrifuged (400 g×5 min), resuspended in growth medium and 100 ul aliquots were seeded into a microtitre plate using duplicate wells for each sample before an incubation period of 16-24 hours. After the incubation period in both these assays, 50 ul of growth medium containing 1 uCi of [^3 H]-thymidine (specific activity=5 Ci/mmol; Amersham) was added and the plates incubated for 2-4 hours. Cells were then harvested and dried, and individual samples were separated and counted on a beta scintillation counter.

[6] = tested on: tumour cell lines tested; experiment: 24 hour assay, tumour cell lines tested (Example 2); type: cell-based
Method: […] Cells were then centrifuged (400 g×5 min), resuspended in growth medium and 100 ul aliquots were seeded into a microtitre plate using duplicate wells for each sample before an incubation period of 16-24 hours. After the incubation period in both these assays, 50 ul of growth medium containing 1 uCi of [^3 H]-thymidine (specific activity=5 Ci/mmol; Amersham) was added and the plates incubated for 2-4 hours. Cells were then harvested and dried, and individual samples were separated and counted on a beta scintillation counter.

[7] = tested on: murine thymoma ITT(1) 75NS E3 (Ly-2^+); experiment: 30 minute inhibition assay ([^3 H]-thymidine incorporation), E3; type: cell-based; details: 0.5 h
From the text: (§4) The cell lines examined in this study included the (Ly-2^+) murine thymoma ITT(1) 75NS E3 variant (E3) (Smyth et al, J. Natl Cancer Inst. 1986 76 503-510), the (Ly-2^-, TFR^-) lymphoma EL4 (Horowitz et al, Science 1968 160 533-535), the (TFR^+) human cell line CEM (Foley et al Cancer 1965 18 522-529) and the (250-30.6^+) human cell line COLO 205. Cells were maintained in vitro in Dulbecco's Modified Eagle's medium (DME) or RPMI 1640 medium (Flow Laboratories, Sydney, Australia), supplemented with 10% heat inactivated newborn calf serum (Flow), 2 mM glutamine (Commonwealth Serum Laboratories, Sydney, Australia); 100 ug/ml streptomycin (Glaxo, Melbourne, Australia) and 100 I.U./ml penicillin (Commonwealth Serum Laboratories). The E3 tumour was maintained in vivo by serial passage into (C57BL/6×BALB/c)F1 mice (CBF1 mice). Cells from the ascites fluid were washed and centrifuged (400 g×5 min) twice in phosphate buffered saline (PBS), pH7.3, resuspended in PBS and injected subcutaneously (s.c.) into the abdominal wall of mice; these developed into palpable tumours prior to treatment. Mice were subjected to a series of intraveneous (i.v.) or intratumour (i.t.) treatments and the subsequent size of tumours was measured daily with a caliper square, measuring along the perpendicular axes of the tumours. Data was recorded as mean tumour size (product of two diameters ± standard error).
as §3

[8] = tested on: COLO 205; experiment: 30 minute inhibition assay ([^3 H]-thymidine incorporation), COLO 205; type: cell-based; details: Homo sapiens, 0.5 h
Method: (§5) The cell lines examined in this study included the (Ly-2^+) murine thymoma ITT(1) 75NS E3 variant (E3) (Smyth et al, J. Natl Cancer Inst. 1986 76 503-510), the (Ly-2^-, TFR^-) lymphoma EL4 (Horowitz et al, Science 1968 160 533-535), the (TFR^+) human cell line CEM (Foley et al Cancer 1965 18 522-529) and the (250-30.6^+) human cell line COLO 205. […] Mice were subjected to a series of intraveneous (i.v.) or intratumour (i.t.) treatments and the subsequent size of tumours was measured daily with a caliper square, measuring along the perpendicular axes of the tumours. Data was recorded as mean tumour size (product of two diameters ± standard error).
as §2
(§6) Data was recorded as mean tumour size (product of two diameters ± standard error).

[9] = tested on: (L3T4^+) lymphoma EL4; experiment: 30 minute inhibition assay ([^3 H]-thymidine incorporation), EL4; type: cell-based; details: 0.5 h; Table 3; EL4, 30 min; read-out: Mean I.D.50 values (Ida (M))
Method: as §3, with “counter. Incorporation of [^3 H]-thymidine was expressed as a percentage inhibition in incorporation of controls.” for “counter.”
The cell lines examined in this study included the (Ly-2^+) murine thymoma ITT(1)75NS E3 variant (E3), the (L3T4^+) lymphoma EL4 (Horowitz et al, Science 1968 160 533-535), the human colon carcinoma Colo 205 (Semple et al, Cancer Res. 1978 38 1345-1355) and the (Ly-2^-, L3T4^-) human T cell leukemia CEM (Foley et al, Cancer 1965 18 522-529). Cells were maintained in vitro as described in Example 1. […] Mice were then subjected to a series of i.v. treatments and the size of the tumours was measured daily with a caliper square, measuring along the perpendicular axes of the tumours. […]

[10] = tested on: human cell line CEM; experiment: cells; type: cell-based; details: 0.5 h, Table 3, 30 min, read-out: Mean I.D.50 values (Ida (M))
Method: as §5, §2, §6

[11] = tested on: E3 thymoma; experiment: i.v. treatment of s.c. E3 thymoma in CBF1 mice (2.0×10^6 cells); type: in vivo; details: 20 ug Ida, days 4 and 5
From the text: as §4, with “error). […]” for “error).”

[12] = tested on: solid E3 tumour; experiment: Intratumour treatment of E3 tumours in CBF1 mice; type: in vivo; details: days 5 and 6, total Ida=30 ug
Method: The E3 tumour was maintained in vivo by serial passage into (C57BL/6×BALB/c)F1 mice (CBF1 mice). Cells from the ascites fluid were washed and centrifuged (400 g×5 min) twice in phosphate buffered saline (PBS), pH7.3, resuspended in PBS and injected subcutaneously (s.c.) into the abdominal wall of mice; these developed into palpable tumours prior to treatment. Mice were subjected to a series of intraveneous (i.v.) or intratumour (i.t.) treatments and the subsequent size of tumours was measured daily with a caliper square, measuring along the perpendicular axes of the tumours. Data was recorded as mean tumour size (product of two diameters ± standard error).

[13] = tested on: COLO 205 xenografts; experiment: i.v. treatment of COLO 205 xenografts in nude mice; type: in vivo, nude (nu/nu) mice; human tumour; details: total 275 ug Ida
From the text: Injection of 2×10^6 cells subcutaneously into the abdominal wall yielded a palpable lump within 4 days (approx. 0.1 cm^2).

[14] = Acute toxicity, single i.v. injection in CBA mice; type: in vivo; details: mouse, in vivo, iv; Table 2; Ida (mg/kg)
Method: (§7) Groups of 10-20 CBA mice were given a single i.v. injection of various doses of Ida or Ida-anti-Ly-2.1 and the survival of mice was recorded against the dose of drug delivered in mg/kg. The organs of these mice were removed and weighed prior to formalin fixation and staining by haematoxylin and eosin.
(§8) For acute toxicity experiments groups of 10 CBA (Ly2.1^+) mice were given a single injection of various doses of either Ida, Ida-anti-Ly-2.1 or Ida-anti-TFR. […] Ida-MoAb conjugates were not tested to an LD50 dose.

[15] = tested on: CBA mice; experiment: Acute toxicity, single i.v. injection in CBA mice; type: in vivo
Method: as §7, §8

[16] = tested on: CBA mice (organs); experiment: Histopathology after single i.v. dose; type: in vivo; details: 1.0 mg/kg i.v.
Method: as §7

## CC(=O)[C@]1(O)Cc2c(O)c3c(c(O)c2[C@@H](O[C@H]2C[C@H](N)[C@H](O)[C@H](C)O2)C1)C(=O)c1ccccc1C3=O [Ida, 4-demethoxy-daunorubicin]
[1]; Table 1, E3, 24 hour assay, read-out: Mean I.D.50 (50% inhibition in [^3 H]-thymidine incorporation of controls)
  IC50: 1.2e-07 M
[1]; Table 3, E3, 24 hr, read-out: Mean I.D.50 values (Ida (M))
  IC50: 7.8e-08 M
[2]; Table 1, 24 hour assay, read-out: Mean I.D.50 (50% inhibition in [^3 H]-thymidine incorporation of controls)
  IC50: 2.2e-07 M
[2]; Table 3, 24 hr, read-out: Mean I.D.50 values (Ida (M))
  IC50: 9e-08 M
[3]; Table 3, Colo 205, 24 hr, read-out: Mean I.D.50 values (Ida (M))
  IC50: 8e-08 M
[3]; target cell line COLO 205, Example 1, read-out: I.D.50 (the source's name)
  IC50: 6e-08 M
[4]
  IC50: 6.6e-08 M
[5]
  cytotoxicity of free Ida compared with conjugates: more cytotoxic to both E3 and CEM than Ida-anti-Ly-2.1 and Ida-anti-TFR respectively
[6]
  activity of free Ida relative to Ida-MoAb conjugates: 4-10 times
[7]; E3, 30 min, compared with COLO 205, Example 1, read-out: dose response to free drug (I.D.50)
  IC50: 9.8e-07 M
[7]; Mus musculus, E3, incubated 30 minutes, Example 1, read-out: I.D.50 (the source's name)
  IC50: 5.2e-07 M
[7]; Mus musculus, Table 3, E3, 30 min, read-out: Mean I.D.50 values (Ida (M))
  IC50: 1.8e-07 M
[8]; COLO 205, 30 min, Example 1, read-out: dose response to free drug (I.D.50)
  IC50: 9.2e-07 M
[8]; Table 3, Colo 205, 30 min, read-out: Mean I.D.50 values (Ida (M))
  IC50: 1.2e-07 M
[9]
  IC50: 1.6e-07 M
[10]
  IC50: 2.2e-07 M
[11]
  tumour reduction: up to 50%
[11]; of 10 mice
  mice died: 3
[12]
  anti-tumour activity / effect on tumour growth: not affecting tumour growth
[13]
  mice survived: 2 out of 10
[14]
  LD50: 3 mg/kg
[15]; Table 2, Ida (mg/kg)
  L.D.10: 0.75 mg/kg
[15]; mg/kg of Ida, single i.v.
  LD10: 0.75 mg/kg
[15]; single i.v. injection, all mice
  initial weight loss (of original weight): up to 25%
[16]; 15 days
  spleen histopathology: atrophy of the white pulp in the spleen
[16]; data not shown
  cardiac histopathology: some hypertrophy of cardiac muscle fibres
